# Measured values from US20220110949A1, “A 19-NOR C3,3-DISUBSTITUTED C21-N-PYRAZOLYL STEROID AND METHODS OF USE THEREOF” (Sage Therapeutics, Inc., priority 2017, published 2022).
# Marks after values point to notes of the source that are not given here.
# Experiments:
# [1] = system: healthy adults, 5-hour phase advance model of insomnia; assay: Double-blind, placebo-controlled 3-way crossover study; polysomnography (PSG) and subjective sleep measures in a 5-hour phase advance model of insomnia; format: in vivo, human; parameters: LPS decrease from baseline: dose or concentration left out as unconfirmed; conditions: for LPS (min), Median / NAW, Median / SE (%) (sleep efficiency), Median / TST (min), Median / WASO (min), Median / mDURAW (min), Median: PSG; for decrease in median duration of awakenings from baseline: baseline 9.364, awakenings in minutes; for TST median change (increase) from baseline: baseline median 317.00 minutes; for Sleep efficiency (SE) increase from baseline (median): median at baseline 66.042%; for WASO median change from baseline: median at baseline 134.00 minutes; for Subjective Sleep Quality (sSQ) Median (min, max): scale of 1 (poor) to 10 (excellent)
# Description: Example 1. A Randomized, Double-Blind, Multiple Dose, 3-Way Crossover, Exploratory Study to Assess the Pharmacodynamic Effects of Compound 1 Capsules in Healthy Adults Using a 5-Hour Phase Advance Model of Insomnia
# Sleep efficiency, defined as the percentage of time in bed spent asleep, as determined by polysomnography (PSG).
# This is a double-blind, placebo-controlled, 3-way crossover study (Treatment Periods 1, 2, and 3), followed by an open-label administration of Compound 1 for pharmacokinetic purposes (Treatment Period 4). Subjects are expected to participate in Treatment Periods 1, 2 and 3. These subjects may continue into Treatment Period 4. If necessary, de novo subjects may also be included in Treatment Period 4 (see FIG. 2).
# Subjects who meet the sleep diary continuation criteria will return for Visit 2 (Day −7) for a one-night PSG qualification visit. The PSG qualification visit (Visit 2) will begin on Study Day −7 and will continue to Study Day −6. The CRC will determine the median habitual bedtime from their sleep diary. Subjects should arrive at the clinic about 7 hours prior to their habitual bedtime for the one-night PSG qualification visit. Subjects will receive a standard meal and be prepared for overnight PSG recording. Lights out and PSG recording will begin five hours (±30 minutes) earlier than their mean habitual bedtime. Subjects will be required to remain in bed for eight hours, after which time the PSG recording will end, lights will turn on, and subjects will be awakened if asleep. Subjects will complete a Post Sleep Questionnaire about their subjective sleep thirty minutes after the end of the recording. Subjects will be discharged after all morning assessments have been completed at the discretion of the investigator. Subjects will have the option to remain in the clinic (e.g., to sleep at the clinic) until 9 AM.
# Treatment Period 1 (Visit 3) begins on Study Day 1 and continues till Study Day 2. Subjects should arrive at the clinic approximately 7 hours prior to their habitual bedtime. Eligibility criteria will be confirmed and subjects will be randomized (1:1:1:1:1:1) to one of six possible treatment sequences (see FIG. 1). Predose assessments will be conducted. Subjects will receive a standard meal and be prepared for overnight PSG recording. Thirty minutes (±15 minutes) prior to lights out, blinded study drug (30 mg Compound 1, 45 mg Compound 1, or placebo) will be administered with food. Lights out and the PSG recording will begin five hours (±30 minutes) prior to their habitual bedtime. Subjects will be required to remain in bed for eight hours, after which time the lights will turn on, and subjects will be awakened if asleep. The PSG recording will end after 5 minutes (±1 minute) of quiet wakefulness is recorded. Subjects should complete a Post Sleep Questionnaire 30 minutes after the end of the recording. Post-PSG safety assessments will be conducted per the Schedule of Assessments. […] Subjects will have the option to remain in the clinic (e.g., to sleep at the clinic) until 9:00 AM.
# Treatment Period 2 (Visit 4, Study Days 8 to 9) and Treatment Period 3 (Visit 5, Study Days 15 to 16) will follow similar procedures. Subjects will resume normal sleep patterns and maintain a sleep diary during the washout periods between treatments.
# For Treatment Periods 1, 2, and 3, each subject will receive a single dose of study drug (30 mg Compound 1, 45 mg Compound 1, or placebo) on 3 separate visits; each subject will receive each dose level or placebo once. Study subjects who participate in Treatment Period 4 will receive one additional single dose of Compound 1 (30 mg) during one separate study visit.
# The Efficacy Set will include all subjects in the Safety Set who have post-dose PSG data. Sleep efficiency will be analyzed using a mixed effects model for repeated measures (MMRM); the model will include treatment, treatment sequence, and period as fixed effects, with adjustment for screening sleep efficiency. […]
# healthy adults = assay: Safety and tolerability (adverse events) in the study of Example 1; format: in vivo, human; conditions: single dose 30 mg or 45 mg
# Description: Frequency, type, severity of adverse events; changes in vital sign assessments, clinical laboratory data, electrocardiogram (ECG) parameters, suicidality assessment via the Columbia Suicide Severity Rating Scale (C-SSRS), sleepiness assessment via Karolinska Sleepiness Scale (KSS), and psychomotor performance assessment via Digit Symbol Substitution Test (DSST)
# The safety and tolerability of Compound 1 Capsules will be evaluated by frequency, type, and severity of adverse events; mean changes from baseline in clinical laboratory measures, vital signs, ECGs, suicidal ideation using the C-SSRS, sleepiness using the KSS, and psychomotor performance using the DSST.
# Adverse events will be classified by type, incidence, severity, and causality. The overall incidence of adverse events will be summarized by Medical Dictionary for Regulatory Activities (MedDRA) system organ class and preferred term. Data for vital signs, clinical laboratory measurements, ECG, and concomitant medication usage will also be summarized. Suicidality data collected using the C-SSRS at baseline and at each visit during the active Treatment Period will be listed for all subjects. The C-SSRS listings will include behavior type and/or category for suicidal ideation and suicidal behavior of the C-SSRS. Out-of-range safety endpoints may be categorized as low or high, where applicable. […]
compound,measurement,setting,value
C[C@@]1(O)CC[C@H]2[C@H](CC[C@@H]3[C@@H]2CC[C@]2(C)[C@@H](C(=O)Cn4cc(C#N)cn4)CC[C@@H]32)C1 [Compound 1],"Latency to persistent sleep (LPS) (min), Median Difference from Placebo",[1]; 30 mg,-1.50 min
same,"Mean Duration of Awakenings (mDURAW) (min), Median Difference from Placebo",[1]; 30 mg,−3.43** min
same,"Number of Awakenings (NAW), Median Difference from Placebo",[1]; 30 mg,−1.00
same,REM Sleep,[1]; 30 mg,50.15 min
same,"Sleep Efficiency (SE) (%), Median Difference from Placebo",[1]; 30 mg,11.35* %
same,Stage N1,[1]; 30 mg,20.11 min
same,Stage N2,[1]; 30 mg,258.16 min
same,Stage N3 (SWS),[1]; 30 mg,68.38 min
same,"Subjective Sleep Latency (sSL) (min) Median (min, max)",[1]; 30 mg,"15 (2, 240) min"
same,"Subjective TST (sTST) (min) Median (min, max)",[1]; 30 mg,"450.0 (40, 555) min"
same,"Subjective WASO (sWASO) (min) Median (min, max)",[1]; 30 mg,"10.0 (0, 120) min"
same,"Total sleep time (TST) (min), Median Difference from Placebo",[1]; 30 mg,54.50* min
same,"Wakefulness after sleep onset (WASO (min), Median Difference from Placebo)",[1]; 30 mg,−22.00* min
same,effect on REM sleep,[1]; 30 mg and 45 mg,did not disrupt REM sleep
same,"LPS (min), Median",[1]; 30 mg single evening dose,13.25 min
same,"NAW, Median",[1]; 30 mg single evening dose,8.00
same,"SE (%) (sleep efficiency), Median",[1]; 30 mg single evening dose,84.64%
same,"TST (min), Median",[1]; 30 mg single evening dose,406.25 min
same,"WASO (min), Median",[1]; 30 mg single evening dose,55.00 min
same,"mDURAW (min), Median",[1]; 30 mg single evening dose,4.23 min
same,decrease in median duration of awakenings from baseline,[1]; 30 mg,2.629
same,TST median change (increase) from baseline,[1]; 30 mg,85.25 min
same,Sleep efficiency (SE) increase from baseline (median),[1]; 30 mg,17.761%
same,WASO median change from baseline,[1]; 30 mg,-74.75 min
same,LPS decrease from median baseline,"[1]; 30 mg, median baseline 28.50",13.25 min
same,"Subjective Sleep Quality (sSQ) Median (min, max)",[1]; 30 mg,"8.0 (5, 10)"
same,"Latency to persistent sleep (LPS) (min), Median Difference from Placebo",[1]; 45 mg,-1.00 min
same,"Mean Duration of Awakenings (mDURAW) (min), Median Difference from Placebo",[1]; 45 mg,−1.50+ min
same,"Number of Awakenings (NAW), Median Difference from Placebo",[1]; 45 mg,−2.00
same,REM Sleep,[1]; 45 mg,43.54 min
same,"Sleep Efficiency (SE) (%), Median Difference from Placebo",[1]; 45 mg,12.61* %
same,Stage N1,[1]; 45 mg,19.58 min
same,Stage N2,[1]; 45 mg,266.79 min
same,Stage N3 (SWS),[1]; 45 mg,74.71 min
same,"Subjective Sleep Latency (sSL) (min) Median (min, max)",[1]; 45 mg,"10 (1, 60) min"
same,"Subjective TST (sTST) (min) Median (min, max)",[1]; 45 mg,"465.0 (0, 510) min"
same,"Subjective WASO (sWASO) (min) Median (min, max)",[1]; 45 mg,"5.0 (0, 300) min"
same,"Total sleep time (TST) (min), Median Difference from Placebo",[1]; 45 mg,60.50* min
same,"Wakefulness after sleep onset (WASO (min), Median Difference from Placebo)",[1]; 45 mg,−55.50* min
same,"LPS (min), Median",[1]; 45 mg single evening dose,14.25 min
same,"NAW, Median",[1]; 45 mg single evening dose,7.00
same,"SE (%) (sleep efficiency), Median",[1]; 45 mg single evening dose,87.55%
same,"TST (min), Median",[1]; 45 mg single evening dose,420.25 min
same,"WASO (min), Median",[1]; 45 mg single evening dose,42.50 min
same,"mDURAW (min), Median",[1]; 45 mg single evening dose,3.67 min
same,decrease in median duration of awakenings from baseline,[1]; 45 mg,4.261
same,TST median change (increase) from baseline,[1]; 45 mg,96.00 min
same,Sleep efficiency (SE) increase from baseline (median),[1]; 45 mg,20.000%
same,WASO median change from baseline,[1]; 45 mg,-75.25 min
same,"Subjective Sleep Quality (sSQ) Median (min, max)",[1]; 45 mg,"9.0 (6, 10)"
same,LPS decrease from baseline,[1]; median baseline 28.50,14.50 min
same,impact on latency to persistent sleep (LPS),[1]; single dose capsule of 30 mg or 45 mg in the evening,did not impact
same,intensity of adverse events,healthy adults,mild
same,serious or severe adverse events,healthy adults,no serious or severe adverse events were observed
